Measured values published in ChEMBL document CHEMBL6127062, “Targeted degradation of METTL3 against acute myeloid leukemia and gastric cancer” (Eur J Med Chem, 2024).
Active and inactive are the calls of the source. The rule behind the calls is not given here.

How the values were obtained:
[1] = target: T1, Protein cereblon/N(6)-adenosine-methyltransferase catalytic subunit METTL3 (Homo sapiens) (UniProt Q96SW2+Q86U44); experiment: PROTAC activity at CRBN/METTL3 in human MOLM-13 cells assessed as induction of METTL3 degradation at 10 uM by Western blot analysis relative to control; type: cell-based
T1 sequence (Q86U44 whole entry, looked up): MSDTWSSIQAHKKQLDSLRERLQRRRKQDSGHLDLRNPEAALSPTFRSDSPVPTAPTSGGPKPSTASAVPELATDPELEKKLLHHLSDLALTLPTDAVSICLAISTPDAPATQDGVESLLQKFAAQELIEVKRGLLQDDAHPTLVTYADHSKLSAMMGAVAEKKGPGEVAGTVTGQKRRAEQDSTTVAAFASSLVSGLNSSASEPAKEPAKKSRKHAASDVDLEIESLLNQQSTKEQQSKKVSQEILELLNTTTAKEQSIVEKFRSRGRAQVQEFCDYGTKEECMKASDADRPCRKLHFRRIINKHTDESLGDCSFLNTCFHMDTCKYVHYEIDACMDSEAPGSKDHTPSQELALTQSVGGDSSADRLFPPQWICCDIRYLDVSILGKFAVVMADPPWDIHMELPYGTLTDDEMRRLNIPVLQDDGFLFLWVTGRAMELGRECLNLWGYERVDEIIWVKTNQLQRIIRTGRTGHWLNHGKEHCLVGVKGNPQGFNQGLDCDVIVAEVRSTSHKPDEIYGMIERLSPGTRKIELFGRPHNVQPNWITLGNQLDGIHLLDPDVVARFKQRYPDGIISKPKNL
T1 sequence (Q96SW2 whole entry, looked up): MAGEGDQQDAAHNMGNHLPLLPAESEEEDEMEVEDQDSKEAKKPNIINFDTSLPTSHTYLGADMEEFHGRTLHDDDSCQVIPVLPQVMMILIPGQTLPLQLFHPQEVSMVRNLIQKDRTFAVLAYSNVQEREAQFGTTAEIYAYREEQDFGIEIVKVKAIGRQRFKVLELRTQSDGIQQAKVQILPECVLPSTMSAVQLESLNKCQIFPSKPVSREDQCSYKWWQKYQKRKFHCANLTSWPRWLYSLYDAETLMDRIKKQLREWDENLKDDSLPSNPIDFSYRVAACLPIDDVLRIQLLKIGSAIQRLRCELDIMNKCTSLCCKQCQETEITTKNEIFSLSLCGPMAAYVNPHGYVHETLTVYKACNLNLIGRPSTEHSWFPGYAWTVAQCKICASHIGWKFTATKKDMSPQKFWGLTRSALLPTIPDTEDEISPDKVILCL

[2] = target: T1, Protein cereblon/N(6)-adenosine-methyltransferase catalytic subunit METTL3 (Homo sapiens); experiment: PROTAC activity at CRBN/METTL3 in human MOLM-13 cells assessed as induction of METTL3 degradation at 1 uM by Western blot analysis relative to control; type: cell-based
GES1 = experiment: Anticancer activity against human GES1 cells assessed as inhibition of cell growth incubated for 72 hrs by cell viability assay; type: functional, cell-based
SNU-484 = experiment: Anticancer activity against human SNU484 cells assessed as inhibition of cell growth incubated for 72 hrs by cell viability assay; type: functional, cell-based
MOLM-13 = experiment: Antiproliferative activity against human MOLM-13 cells assessed as inhibition of cell proliferation measured after 72 hrs by Celltiter Glo luminescent cell viability assay; type: functional, cell-based; conditions: MOLM-13, 72 h
AGS = experiment: Anticancer activity against human AGS cells assessed as inhibition of cell growth incubated for 72 hrs by cell viability assay; type: functional, cell-based

CC1(C)CCN(Cc2cc(F)c(N3CC(=O)NC4(CCN(c5cc(NCCCCCC(=O)N6CCN(c7ccc8c(c7)C(=O)N(C7CCC(=O)NC7=O)C8=O)CC6)ncn5)CC4)C3)cc2F)CC1 (configuration not stated)
Activity [1]: 35%
Activity [2]: 32%

CC1(C)CCN(Cc2cc(F)c(N3CC(=O)NC4(CCN(c5cc(NCCCCCCCCCCC(=O)N6CCN(c7ccc8c(c7)C(=O)N(C7CCC(=O)NC7=O)C8=O)CC6)ncn5)CC4)C3)cc2F)CC1 (configuration not stated)
Activity [1]: 22%
Activity [2]: 9%

O=C(NCc1cn2cc(CNCC3CCCCC3)ccc2n1)c1cc(=O)n2ccccc2n1
Activity (GES1): inactive
Activity (SNU-484): inactive
IC50 (MOLM-13): 5.47 µM
Activity (AGS): inactive

CNc1cc(N2CCC3(CC2)CN(c2cc(F)c(CN4CCC(C)(C)CC4)cc2F)CC(=O)N3)ncn1
Activity (GES1): inactive
Activity (SNU-484): inactive
IC50 (MOLM-13): 6.17 µM
Activity (AGS): inactive
